Data taken from patent US11554171B2, “Compounds and methods for the targeted degradation of bromodomain-containing proteins” (Arvinas Operations, Inc., priority 2015, dated 2023).

System: c-myc in 22RV-1 cells
Test: Human c-myc ELISA assay
Format: cell-based
Conditions: Homo sapiens; for Emax: 22Rv1, 18 h, read-out: Degradation of BRD4: Maximum inhibition (%) c-Myc ELISA in 22RV1 cells; for DC50: 22Rv1, read-out: Degradation of BRD4: DC50 (uM) c-Myc ELISA in 22RV1 cells
Experimental: 22RV-1 cells are seeded at 30,000 cells/well at a volume of 75 μL/well in RPMI+10% FBS media in 96-well plates and grown overnight at 37 C. Cells are dosed with compounds at 4× concentration diluted in 0.4% DMSO; compounds are serially diluted 1:3 for 8-point dose curve. 25 ul of compounds is added to cells for a final concentration starting at 300 nM-0.3 nM or 1 uM-1 nM in 0.1% DMSO and incubated for 18 hrs. Media is aspirated, cells washed 1× with PBS and aspirated. Cells are lysed in 50 ul RIPA buffer (50 mM Tris pH8, 150 mM NaCl, 1% Tx-100, 0.1% SDS, 0.5% sodium deoxycholate) supplemented with protease and phosphatase inhibitors. Plates are incubated on ice for 15 minutes then centrifuged at 4 C for 10 min at 4000 rpm. Add 50 ul of cleared lysate from 96-well assay plate into 96-well c-myc ELISA plate (Novex, Life Technologies Catalog #KH02041). Reconstitute c-myc standard with standard diluent buffer; standard curve range is 333 pg/ml-0 pg/ml, diluted 1:2 for 8-point dose curve. The rest of the assay was performed following the protocol from the c-myc ELISA kit. Data is analyzed and plotted using GraphPad Prism software. Compounds described in this application were assayed and c-myc suppression potency is listed in the following Table (A: DC50<10 nM; B: DC50 10-100 nM; C: DC50: 100-1000 nM; D: DC50>1000 nM)

| SMILES | DC50 [µM] | Emax [%] |
| --- | --- | --- |
| Cc1ncsc1-c1ccc(CNC(=O)[C@@H]2C[C@@H](O)CN2C(=O)[C@@H](NC(=O)COCCCOCC#Cc2ccc([C@@H](C)NC(=O)C[C@@H]3N=C(c4ccc(Cl)cc4)c4c(sc(C)c4C)-n4c(C)nnc43)cc2)C(C)(C)C)cc1 [Example 39, (2S,4R)-1-[(2S)-2-(2-{3-[(3-{4-[(1R)-1-{2-[(9S)-7-(4-chlorophenyl)-4,5,13-trimethyl-3-thia-1,8,11,12-tetraazatricyclo[8.3.0.0^2,^6]trideca-2(6),4,7,10,12-pentaen-9-yl]acetamido}-ethyl]phenyl}prop-2-yn-1-yl)oxy]propoxy}acetamido)-3,3-dimethylbutanoyl]-4-hydroxy-N-{[4-(4-methyl-1,3-thiazol-5-yl)phenyl]methyl}pyrrolidine-2-carboxamide] | 0.01 to 0.1 | 99 |
| Cc1ncsc1-c1ccc(CNC(=O)[C@@H]2C[C@@H](O)CN2C(=O)[C@@H](NC(=O)COCCCOCC#Cc2ccc([C@H](C)NC(=O)C[C@@H]3N=C(c4ccc(Cl)cc4)c4c(sc(C)c4C)-n4c(C)nnc43)cc2)C(C)(C)C)cc1 [Example 40] | 0.01 to 0.1 | 97.5 |
| Cc1ncsc1-c1ccc(CNC(=O)[C@@H]2C[C@@H](O)CN2C(=O)[C@@H](NC(=O)COCCOCCNC(=O)C[C@@H]2N=C(c3ccc(Cl)cc3)c3c(sc(C)c3C)-n3c(C)nnc32)C(C)(C)C)cc1 [Example 41, (2S,4R)-1-[(2S)-2-{2-[2-(2-{2-[(9S)-7-(4-chlorophenyl)-4,5,13-trimethyl-3-thia-1,8,11,12-tetraazatricyclo[8.3.0.0^2,^6]trideca-2(6),4,7,10,12-pentaen-9-yl]acetamido}ethoxy)ethoxy]acetamido}-3,3-dimethylbutanoyl]-4-hydroxy-N-{[4-(4-methyl-1,3-thiazol-5-yl)phenyl]methyl}pyrrolidine-2-carboxamide] | 0.1 to 1 | 94 |
| Cc1ncsc1-c1ccc(CNC(=O)[C@@H]2C[C@@H](O)CN2C(=O)[C@@H](NC(=O)COCCOCCOCCNC(=O)C[C@@H]2N=C(c3ccc(Cl)cc3)c3c(sc(C)c3C)-n3c(C)nnc32)C(C)(C)C)cc1 [Example 42, (2S,4R)-1-[(2S)-2-(2-{2-[2-(2-{2-[(9S)-7-(4-chlorophenyl)-4,5,13-trimethyl-3-thia-1,8,11,12-tetraazatricyclo[8.3.0.0^2,^6]trideca-2(6),4,7,10,12-pentaen-9-yl]acetamido}ethoxy)ethoxy]ethoxy}acetamido)-3,3-dimethylbutanoyl]-4-hydroxy-N-{[4-(4-methyl-1,3-thiazol-5-yl)phenyl]methyl}pyrrolidine-2-carboxamide] | 0.01 to 0.1 | 98.6 |
| Cc1ncsc1-c1ccc(CNC(=O)[C@@H]2C[C@@H](O)CN2C(=O)[C@@H](NC(=O)COCC#CC#CCOc2ccc([C@@H](C)NC(=O)C[C@@H]3N=C(c4ccc(Cl)cc4)c4c(sc(C)c4C)-n4c(C)nnc43)cc2)C(C)(C)C)cc1 [Example 43, (2S,4R)-1-[(2S)-2-{2-[(6-{4-[(1R)-1-{2-[(9S)-7-(4-chlorophenyl)-4,5,13-trimethyl-3-thia-1,8,11,12-tetraazatricyclo[8.3.0.0^2,^6]trideca-2(6),4,7,10,12-pentaen-9-yl]acetamido}ethyl]phenoxy}hexa-2,4-diyn-1-yl)oxy]acetamido}-3,3-dimethylbutanoyl]-4-hydroxy-N-{[4-(4-methyl-1,3-thiazol-5-yl)phenyl]methyl}pyrrolidine-2-carboxamide] | 0.01 to 0.1 | 100 |
| Cc1ncsc1-c1ccc(CNC(=O)[C@@H]2C[C@@H](O)CN2C(=O)[C@@H](NC(=O)COCCCNC(=O)C[C@@H]2N=C(c3ccc(Cl)cc3)c3c(sc(C)c3C)-n3c(C)nnc32)C(C)(C)C)cc1 [Example 44] | 0.1 to 1 | 98 |
| Cc1ncsc1-c1ccc(CNC(=O)[C@@H]2C[C@@H](O)CN2C(=O)[C@@H](NC(=O)COCCCCNC(=O)C[C@@H]2N=C(c3ccc(Cl)cc3)c3c(sc(C)c3C)-n3c(C)nnc32)C(C)(C)C)cc1 [Example 45, (2S,4R)-1-[(2S)-2-[2-(4-{2-[(9S)-7-(4-chlorophenyl)-4,5,13-trimethyl-3-thia-1,8,11,12-tetraazatricyclo[8.3.0.0^2,^6]trideca-2(6),4,7,10,12-pentaen-9-yl]acetamido}butoxy)acetamido]-3,3-dimethylbutanoyl]-4-hydroxy-N-{[4-(4-methyl-1,3-thiazol-5-yl)phenyl]methyl}pyrrolidine-2-carboxamide] | 0.1 to 1 | 100 |

More lines, main results first:

| DC50 [µM] | SMILES | Emax [%] |
| --- | --- | --- |
| 0.01 to 0.1 | Cc1ncsc1-c1ccc(CNC(=O)[C@@H]2C[C@@H](O)CN2C(=O)[C@@H](NC(=O)COCCCOCCCNC(=O)C[C@@H]2N=C(c3ccc(Cl)cc3)c3c(sc(C)c3C)-n3c(C)nnc32)C(C)(C)C)cc1 [Example 46] | 100 |
| 0.1 to 1 | CCc1nnc2n1-c1sc(C)c(C)c1C(c1ccc(Cl)cc1)=N[C@H]2CC(=O)Nc1ccc(OCCCOCCCOCC(=O)N[C@H](C(=O)N2C[C@H](O)C[C@H]2C(=O)NCc2ccc(-c3scnc3C)cc2)C(C)(C)C)cc1 [Example 47] | 89 |
| 0.01 to 0.1 | Cc1ncsc1-c1ccc([C@H](C)NC(=O)[C@@H]2C[C@@H](O)CN2C(=O)[C@@H](NC(=O)COCCC(=O)N2CCN(c3ccc([C@H](C)NC(=O)C[C@@H]4N=C(c5ccc(Cl)cc5)c5c(sc(C)c5C)-n5c(C)nnc54)cc3)CC2)C(C)(C)C)cc1 [Example 48, (2S,4R)-1-[(2S)-2-{2-[3-(4-{4-[(1S)-1-{2-[(9S)-7-(4-chlorophenyl)-4,5,13-trimethyl-3-thia-1,8,11,12-tetraazatricyclo[8.3.0.0^2,^6]trideca-2(6),4,7,10,12-pentaen-9-yl]acetamido}ethyl]phenyl}piperazin-1-yl)-3-oxopropoxy]acetamido}-3,3-dimethylbutanoyl]-4-hydroxy-N-[(1S)-1-[4-(4-methyl-1,3-thiazol-5-yl)phenyl]ethyl]pyrrolidine-2-carboxamide] | 98 |
| < 0.01 | Cc1ncsc1-c1ccc(CNC(=O)[C@@H]2C[C@@H](O)CN2C(=O)[C@@H](NC(=O)COCCCOCCNC(=O)C[C@@H]2N=C(c3ccc(Cl)cc3)c3c(sc(C)c3C)-n3c(C)nnc32)C(C)(C)C)cc1 [Example 49, (2S,4R)-1-[(2S)-2-{2-[3-(2-{2-[(9S)-7-(4-chlorophenyl)-4,5,13-trimethyl-3-thia-1,8,11,12-tetraazatricyclo[8.3.0.0^2,^6]trdeca-2(6),4,7,10,12-pentaen-9-yl]acetamido}ethoxy)propoxy]acetamido}-3,3-dimethylbutanoyl]-4-hydroxy-N-{[4-(4-methyl-1,3-thiazol-5-yl)phenyl]methyl}pyrrolidine-2-carboxamide] | 99 |
| < 0.01 | Cc1ncsc1-c1ccc(CNC(=O)[C@@H]2C[C@@H](O)CN2C(=O)[C@@H](NC(=O)COCCCOCCCCCNC(=O)C[C@@H]2N=C(c3ccc(Cl)cc3)c3c(sc(C)c3C)-n3c(C)nnc32)C(C)(C)C)cc1 [Example 50, (2S,4R)-1-[(2S)-2-(2-{3-[(5-{2-[(9S)-7-(4-chlorophenyl)-4,5,13-trimethyl-3-thia-1,8,11,12-tetraazatricyclo[8.3.0.0^2,^6]trideca-2(6),4,7, 10,12-pentaen-9-yl]acetamido}pentyl)oxy]propoxy}acetamido)-3,3-dimethylbutanoyl]-4-hydroxy-N-{[4-(4-methyl-1,3-thiazol-5-yl)phenyl]methyl}pyrrolidine-2-carboxamide] | 98 |
